Patent US8183287B2, “Pharmaceutical formulations and compositions of a selective antagonist of either CXCR2 or both CXCR1 and CXCR2 and methods of using the same for treating inflammatory disorders” (Schering Corporation, priority 2006, dated 2012)
Where two headings read alike, the source gives them in different places.

Assays:
[1] = clinical study (iii): multiple-dose oral pharmacokinetics, Formulation 1 capsules; type: in vivo, human; settings: for AUC(0-t): read-out: AUC (0-24 hr) Mean; for Tmax: read-out: Tmax Median
[2] = clinical study in subjects with severe neutrophilic asthma; type: in vivo, human; settings: 12 weeks
Description: This study, illustrated schematically in FIG. 5, is a randomized, double-blind, placebo-controlled study in subjects with severe neutrophilic asthma.
Safety is assessed after approximately 30 subjects have completed 2 weeks of treatment in DRF. Variables include the effect on sputum neutrophils, PBNs, adverse events (AEs) and other safety data.
Primary Efficacy Endpoint: The primary efficacy endpoint is the asthma exacerbation status (‘yes’ for presence of an exacerbation, ‘no’ for absence) during the 12-week treatment period.

[3] = both sexes, human, plasma, oral, 10 mg, multiple-dose 10 mg, Day 1
[4] = both sexes, human, plasma, oral, 10 mg, multiple-dose 10 mg, Day 14
[5] = both sexes, human, plasma, oral, 30 mg, multiple-dose 30 mg, Day 1
[6] = both sexes, human, plasma, oral, 30 mg, multiple-dose 30 mg, Day 14
[7] = both sexes, human, plasma, oral, 50 mg, multiple-dose 50 mg, Day 1
[8] = both sexes, human, plasma, oral, 50 mg, multiple-dose 50 mg, Day 14

Cmax [1, 3]: 76 ng/mL
AUC(0-t) [1, 3]: 137 ng·h/mL
Tmax [1, 3]: 30 min
Cmax [1, 4]: 78.1 ng/mL
AUC(0-t) [1, 4]: 156 ng·h/mL
Tmax [1, 4]: 30 min
Cmax [1, 5]: 173 ng/mL
AUC(0-t) [1, 5]: 397 ng·h/mL
Tmax [1, 5]: 30 min
Cmax [1, 6]: 159 ng/mL
AUC(0-t) [1, 6]: 414 ng·h/mL
Tmax [1, 6]: 30 min
Cmax [1, 7]: 239 ng/mL
AUC(0-t) [1, 7]: 681 ng·h/mL
Tmax [1, 7]: 45 min
Cmax [1, 8]: 279 ng/mL
AUC(0-t) [1, 8]: 825 ng·h/mL
Tmax [1, 8]: 30 min
half-life ([1]; both sexes, human, plasma, oral, multiple-dose 50 mg, Day 14, n = 7, read-out: t1/2 Mean (converted)): 828 min
steady state achieved by ([1]; multiple doses): ≤ 11 days
SMILES: CC[C@@H](Nc1c(Nc2cccc(C(=O)N(C)C)c2O)c(=O)c1=O)c1ccc(C)o1 [Compound I]
asthma exacerbation [2]: reduction in asthma exacerbation
